Measured values reported in patent publication EP0349354A1, “Peptides PF10 to PF19 from a retro virus HIV, method for the synthesis of these peptides and their use, particularly in diagnostics” (INSTITUT PASTEUR, priority 1988, dated 1990).

Tested on: anticorps anti-nef
Experiment: ELISA for detection of anti-nef antibodies on coated peptides or nef
Assay type: binding, humain
Details: for nombre de sérums anti-nef positifs ayant réagi: ELISA, out of 31 anti-nef positive sera; for intensité de l'immunoréactivité (OD), Serum 1: Serum 1, anti-nef positive; for intensité de l'immunoréactivité (OD), Serum 1 / intensité de l'immunoréactivité (OD), Serum 2 / intensité de l'immunoréactivité (OD), Serum 3 / intensité de l'immunoréactivité (OD), Serum 4 / intensité de l'immunoréactivité (OD), Serum 5 / intensité de l'immunoréactivité (OD), Serum 6 / intensité de l'immunoréactivité (OD), Serum 7 / intensité de l'immunoréactivité (OD), Serum 8 / intensité de l'immunoréactivité (OD), Serum 9 / intensité de l'immunoréactivité (OD), Serum 10 / intensité de l'immunoréactivité (OD), Serum 11 / intensité de l'immunoréactivité (OD), Serum 12 / intensité de l'immunoréactivité (OD), Serum 13 / intensité de l'immunoréactivité (OD), Serum 14 / intensité de l'immunoréactivité (OD), Serum 15 / intensité de l'immunoréactivité (OD), Serum 16 / intensité de l'immunoréactivité (OD), Serum 17 / intensité de l'immunoréactivité (OD), Serum 18 / intensité de l'immunoréactivité (OD), Serum 19 / intensité de l'immunoréactivité (OD), Serum 20 / intensité de l'immunoréactivité (OD), Serum 21 / intensité de l'immunoréactivité (OD), Serum 22 / intensité de l'immunoréactivité (OD), Serum 23 / intensité de l'immunoréactivité (OD), Serum 24 / intensité de l'immunoréactivité (OD), Serum 25 / intensité de l'immunoréactivité (OD), Serum 26 / intensité de l'immunoréactivité (OD), Serum 27 / intensité de l'immunoréactivité (OD), Serum 28 / intensité de l'immunoréactivité (OD), Serum 29 / intensité de l'immunoréactivité (OD), Serum 30 / intensité de l'immunoréactivité (OD), Serum 31 / intensité de l'immunoréactivité (OD), Serum 32 / intensité de l'immunoréactivité (OD), Serum 33: 500 ng coated per well; for intensité de l'immunoréactivité (OD), Serum 2: Serum 2, anti-nef positive; for intensité de l'immunoréactivité (OD), Serum 3: Serum 3, anti-nef positive; for intensité de l'immunoréactivité (OD), Serum 4: Serum 4, anti-nef positive; for intensité de l'immunoréactivité (OD), Serum 5: Serum 5, anti-nef positive; for intensité de l'immunoréactivité (OD), Serum 6: Serum 6, anti-nef positive; for intensité de l'immunoréactivité (OD), Serum 7: Serum 7, anti-nef positive; for intensité de l'immunoréactivité (OD), Serum 8: Serum 8, anti-nef positive; for intensité de l'immunoréactivité (OD), Serum 9: Serum 9, anti-nef positive; for intensité de l'immunoréactivité (OD), Serum 10: Serum 10, anti-nef positive; for intensité de l'immunoréactivité (OD), Serum 11: Serum 11, anti-nef positive; for intensité de l'immunoréactivité (OD), Serum 12: Serum 12, anti-nef positive; for intensité de l'immunoréactivité (OD), Serum 13: Serum 13, anti-nef positive; for intensité de l'immunoréactivité (OD), Serum 14: Serum 14, anti-nef positive; for intensité de l'immunoréactivité (OD), Serum 15: Serum 15, anti-nef positive; for intensité de l'immunoréactivité (OD), Serum 16: Serum 16, anti-nef positive; for intensité de l'immunoréactivité (OD), Serum 17: Serum 17, anti-nef positive; for intensité de l'immunoréactivité (OD), Serum 18: Serum 18, anti-nef positive; for intensité de l'immunoréactivité (OD), Serum 19: Serum 19, anti-nef positive; for intensité de l'immunoréactivité (OD), Serum 20: Serum 20, anti-nef positive; for intensité de l'immunoréactivité (OD), Serum 21: Serum 21, anti-nef positive; for intensité de l'immunoréactivité (OD), Serum 22: Serum 22, anti-nef positive; for intensité de l'immunoréactivité (OD), Serum 23: Serum 23, anti-nef positive; for intensité de l'immunoréactivité (OD), Serum 24: Serum 24, anti-nef positive; for intensité de l'immunoréactivité (OD), Serum 25: Serum 25, anti-nef positive; for intensité de l'immunoréactivité (OD), Serum 26: Serum 26, anti-nef positive; for intensité de l'immunoréactivité (OD), Serum 27: Serum 27, anti-nef positive; for intensité de l'immunoréactivité (OD), Serum 28: Serum 28, anti-nef positive; for intensité de l'immunoréactivité (OD), Serum 29: Serum 29, anti-nef positive; for intensité de l'immunoréactivité (OD), Serum 30: Serum 30, anti-nef positive; for intensité de l'immunoréactivité (OD), Serum 31: Serum 31, anti-nef positive; for intensité de l'immunoréactivité (OD), Serum 32: Serum 32, anti-nef negative control serum; for intensité de l'immunoréactivité (OD), Serum 33: Serum 33, anti-nef negative control serum
Procedure: Des plaques de microtitration à 96 puits ont été recouvertes une nuit avec 500 ng de protéine nef bactérienne, à 37°C ou avec 500 ng de peptides synthétiques par puits dans 50µl de PBS à pH 7,4. Après saturation avec 400 µl de PBS pH 7,4, contenant 5% de caséine, durant 1 heure à 37°C et lavage avec PBS à pH 7,4, 0,5% de BSA, 0,01% tween, 50 µl de sérums à différentes dilutions ont été ajoutés pendant 2 heures à 37°C. Après le rinçage, 50µl de complexes d'IgG de souris anti-humaine-(H + L)-peroxydase 1:1000 ont été incubés pendant 1 heure à 37°C. Après un nouveau rinçage, 100µl de OPD ont été ajoutés pendant 30mn à température ambiante dans l'obscurité. La réaction de l'enzyme a été arrêtée par addition de 50µl d'acide sulfurique 4N et la densité optique des plaques a été lue à 492 nm/620 nm. Les plaques recouvertes avec la caséine ont été utilisées comme contrôle négatif.
En vue d'étudier la possibilité d'utiliser des peptides synthétiques en tant qu'antigènes pour la détection d'anticorps anti-nef chez des patients infectés par HIV, 8 peptides synthétiques couvrant la totalité de la séquence de la protéine nef de HIV-1 (figure 4) ont été utilisés dans un test ELISA avec 31 sérums anti-nef positifs et 2 sérums anti-nef négatifs utilisés comme contrôle. Les recombinants nef ont été utilisés comme contrôle positif dans les tests ELISA et la caséine a été utilisée comme contrôle négatif. Les résultats de ces expériences sont donnés dans le tableau 4 qui illustre l'essai suivant: Essai ELISA sur 31 sérums anti-nef-positifs et 2 sérums anti-nef- négatifs, soit pré-recouverts avec des peptides synthétiques (PF 11 à PF 18), soit en utilisant nef, la caséine ou un mélange de peptides PF 12 et PF 17. Les sérums ont été sélectionnés au hasard parmi des sérums anti-nef positifs et anti-nefs négatifs testés par la méthode RIA en utilisant ¹²⁵I nef. L'intensité de l'immunoradioactivité est notée "-" pour une densité optique (OD) inférieure à 0,2; "+" pour OD = 0,2 à 0,4; "++" pour OD = 0,4 à 0,8 et "+++" pour OD = 0,8 à 2,0.

Sequence: XCVGFPVTPQVPLRPMTYKAAVDLSHFLKEKGGLEGLIHSQRRQDILZ [PF14]
- nombre de sérums anti-nef positifs ayant réagi: 3
- intensité de l'immunoréactivité (OD), Serum 1: - (pour une densité optique (OD) inférieure à 0,2)
- intensité de l'immunoréactivité (OD), Serum 2: - (pour une densité optique (OD) inférieure à 0,2)
- intensité de l'immunoréactivité (OD), Serum 3: +++ (pour OD = 0,8 à 2,0)
- intensité de l'immunoréactivité (OD), Serum 4: - (pour une densité optique (OD) inférieure à 0,2)
- intensité de l'immunoréactivité (OD), Serum 5: - (pour une densité optique (OD) inférieure à 0,2)
- intensité de l'immunoréactivité (OD), Serum 6: - (pour une densité optique (OD) inférieure à 0,2)
- intensité de l'immunoréactivité (OD), Serum 7: - (pour une densité optique (OD) inférieure à 0,2)
- intensité de l'immunoréactivité (OD), Serum 8: - (pour une densité optique (OD) inférieure à 0,2)
- intensité de l'immunoréactivité (OD), Serum 9: - (pour une densité optique (OD) inférieure à 0,2)
- intensité de l'immunoréactivité (OD), Serum 10: - (pour une densité optique (OD) inférieure à 0,2)
- intensité de l'immunoréactivité (OD), Serum 11: - (pour une densité optique (OD) inférieure à 0,2)
- intensité de l'immunoréactivité (OD), Serum 12: - (pour une densité optique (OD) inférieure à 0,2)
- intensité de l'immunoréactivité (OD), Serum 13: - (pour une densité optique (OD) inférieure à 0,2)
- intensité de l'immunoréactivité (OD), Serum 14: ++ (pour OD = 0,4 à 0,8)
- intensité de l'immunoréactivité (OD), Serum 15: - (pour une densité optique (OD) inférieure à 0,2)
- intensité de l'immunoréactivité (OD), Serum 16: - (pour une densité optique (OD) inférieure à 0,2)
- intensité de l'immunoréactivité (OD), Serum 17: - (pour une densité optique (OD) inférieure à 0,2)
- intensité de l'immunoréactivité (OD), Serum 18: - (pour une densité optique (OD) inférieure à 0,2)
- intensité de l'immunoréactivité (OD), Serum 19: - (pour une densité optique (OD) inférieure à 0,2)
- intensité de l'immunoréactivité (OD), Serum 20: - (pour une densité optique (OD) inférieure à 0,2)
- intensité de l'immunoréactivité (OD), Serum 21: ++ (pour OD = 0,4 à 0,8)
- intensité de l'immunoréactivité (OD), Serum 22: - (pour une densité optique (OD) inférieure à 0,2)
- intensité de l'immunoréactivité (OD), Serum 23: - (pour une densité optique (OD) inférieure à 0,2)
- intensité de l'immunoréactivité (OD), Serum 24: - (pour une densité optique (OD) inférieure à 0,2)
- intensité de l'immunoréactivité (OD), Serum 25: - (pour une densité optique (OD) inférieure à 0,2)
- intensité de l'immunoréactivité (OD), Serum 26: - (pour une densité optique (OD) inférieure à 0,2)
- intensité de l'immunoréactivité (OD), Serum 27: - (pour une densité optique (OD) inférieure à 0,2)
- intensité de l'immunoréactivité (OD), Serum 28: - (pour une densité optique (OD) inférieure à 0,2)
- intensité de l'immunoréactivité (OD), Serum 29: - (pour une densité optique (OD) inférieure à 0,2)
- intensité de l'immunoréactivité (OD), Serum 30: - (pour une densité optique (OD) inférieure à 0,2)
- intensité de l'immunoréactivité (OD), Serum 31: - (pour une densité optique (OD) inférieure à 0,2)
- intensité de l'immunoréactivité (OD), Serum 32: - (pour une densité optique (OD) inférieure à 0,2)
- intensité de l'immunoréactivité (OD), Serum 33: - (pour une densité optique (OD) inférieure à 0,2)

Sequence: XGGKWSKSSVVGWPTVRERMRRAEPAADGVGAASRDLEKHGAITSSNTA ATNAACAWLEAQEEEEVGZ [PF12, protéine F HIV-1, séquence 1-66]
- nombre de sérums anti-nef positifs ayant réagi: 16
- intensité de l'immunoréactivité (OD), Serum 1: + (pour OD = 0,2 à 0,4)
- intensité de l'immunoréactivité (OD), Serum 2: - (pour une densité optique (OD) inférieure à 0,2)
- intensité de l'immunoréactivité (OD), Serum 3: +++ (pour OD = 0,8 à 2,0)
- intensité de l'immunoréactivité (OD), Serum 4: + (pour OD = 0,2 à 0,4)
- intensité de l'immunoréactivité (OD), Serum 5: - (pour une densité optique (OD) inférieure à 0,2)
- intensité de l'immunoréactivité (OD), Serum 6: - (pour une densité optique (OD) inférieure à 0,2)
- intensité de l'immunoréactivité (OD), Serum 7: +++ (pour OD = 0,8 à 2,0)
- intensité de l'immunoréactivité (OD), Serum 8: +++ (pour OD = 0,8 à 2,0)
- intensité de l'immunoréactivité (OD), Serum 9: +++ (pour OD = 0,8 à 2,0)
- intensité de l'immunoréactivité (OD), Serum 10: - (pour une densité optique (OD) inférieure à 0,2)
- intensité de l'immunoréactivité (OD), Serum 11: ++ (pour OD = 0,4 à 0,8)
- intensité de l'immunoréactivité (OD), Serum 12: ++ (pour OD = 0,4 à 0,8)
- intensité de l'immunoréactivité (OD), Serum 13: - (pour une densité optique (OD) inférieure à 0,2)
- intensité de l'immunoréactivité (OD), Serum 14: ++ (pour OD = 0,4 à 0,8)
- intensité de l'immunoréactivité (OD), Serum 15: - (pour une densité optique (OD) inférieure à 0,2)
- intensité de l'immunoréactivité (OD), Serum 16: - (pour une densité optique (OD) inférieure à 0,2)
- intensité de l'immunoréactivité (OD), Serum 17: - (pour une densité optique (OD) inférieure à 0,2)
- intensité de l'immunoréactivité (OD), Serum 18: - (pour une densité optique (OD) inférieure à 0,2)
- intensité de l'immunoréactivité (OD), Serum 19: +++ (pour OD = 0,8 à 2,0)
- intensité de l'immunoréactivité (OD), Serum 20: - (pour une densité optique (OD) inférieure à 0,2)
- intensité de l'immunoréactivité (OD), Serum 21: ++ (pour OD = 0,4 à 0,8)
- intensité de l'immunoréactivité (OD), Serum 22: - (pour une densité optique (OD) inférieure à 0,2)
- intensité de l'immunoréactivité (OD), Serum 23: - (pour une densité optique (OD) inférieure à 0,2)
- intensité de l'immunoréactivité (OD), Serum 24: - (pour une densité optique (OD) inférieure à 0,2)
- intensité de l'immunoréactivité (OD), Serum 25: +++ (pour OD = 0,8 à 2,0)
- intensité de l'immunoréactivité (OD), Serum 26: +++ (pour OD = 0,8 à 2,0)
- intensité de l'immunoréactivité (OD), Serum 27: - (pour une densité optique (OD) inférieure à 0,2)
- intensité de l'immunoréactivité (OD), Serum 28: + (pour OD = 0,2 à 0,4)
- intensité de l'immunoréactivité (OD), Serum 29: ++ (pour OD = 0,4 à 0,8)
- intensité de l'immunoréactivité (OD), Serum 30: - (pour une densité optique (OD) inférieure à 0,2)
- intensité de l'immunoréactivité (OD), Serum 31: +++ (pour OD = 0,8 à 2,0)
- intensité de l'immunoréactivité (OD), Serum 32: - (pour une densité optique (OD) inférieure à 0,2)
- intensité de l'immunoréactivité (OD), Serum 33: - (pour une densité optique (OD) inférieure à 0,2)
